Where two headings read alike, the source gives them in different places. One block for each molecule: values may come before it.
Assays:
[1] = test system: BN175 tumor (soft tissue sarcoma); details: 2 mg/kg DOX single i.v. bolus in combination with 60 min lamp HT (41°C); ranking in words
Experimental: Finally, the therapeutic efficacy of both DPPG2-TSL-DOX formulations was investigated in vivo and compared to selected clinically relevant DOX formulations (e.g., non-liposomal DOX, Caelyx). […] All animals had one BN175 tumor (soft tissue sarcoma) s.c. implanted to one hind leg. Local HT treatment was performed with a light source. Target temperature was 41 °C. Animals were preheated to this temperature for 30 min and temperature was maintained at 41 °C for 60 min after i.v. bolus injection. Animals treated with a DOX formulation received 2 mg/kg DOX as single i.v. bolus injection after one tumor diameter was > 5 mm. After the end of the treatment, animals were placed back into a cage and tumor growth was monitored every 2nd day until reaching an end point (e.g., tumor diameter > 3 cm, exulzeration, bleeding, skin toxicity).

[2] = Accumulation of DOX in tumor tissue and organs, rat BN175 sarcoma model; format: in vivo, Brown Norway rats; details: male, Brown Norway, rat, 60 min after i.v. bolus 2 mg/kg DOX
Experimental: (§1) Eighteen anaesthetized tumor-bearing male Brown Norway rats (-300 g) received a dose of 2 mg/kg DOX of either non-liposomal DOX (n = 6), DPPG2-TSL-DOX (DPPG2 according to formula III) (n = 6), or DPPG2-TSL-DOX (DPPG2 according to WO 97/30059) (n = 6) as i.v. bolus injection, respectively. All animals had two BN175 tumors (soft tissue sarcoma) subcutaneously implanted to each hind leg, respectively. One tumor received 60 min of a local HT treatment with a light source of 41.5°C, whereas the second tumor remained untreated (room temperature, NT). […] Animals were sacrificed after 60 min, organs were perfused, and tumors and organs were collected. DOX content was measured in plasma by HPLC equipped with a fluorescence detector.

[3] = test system: BN175 tumors (soft tissue sarcoma); experiment: as above; format: in vivo, Brown Norway rats
Experimental: as §1

[4] = PK study in healthy rats after i.v. bolus, normothermia; format: in vivo, Brown Norway rats; details: 2 mg/kg DOX i.v. bolus, rat; result in words
Experimental: For the PK study, 18 anaesthetized healthy male Brown Norway rats (-300 g) received a dose of 2 mg/kg DOX of either non-liposomal DOX (n = 6), DPPG2-TSL-DOX (DPPG2 according to formula III) (n = 6), or DPPG2-TSL-DOX (DPPG2 according to WO 97/30059) (n = 6) as i.v. bolus injection, respectively. Body temperature of the animals was controlled via a rectal temperature probe. During anesthesia, the body temperature of animals was maintained by a water bath (37°C). Blood samples were taken at defined time points. DOX and DPPG2 content were measured in plasma by HPLC equipped with a fluorescence detector and LC/MS, respectively.

Phospholipase A2 = biological target: T1, Phospholipase A2 (Sus scrofa, UniProt P00592); experiment: Stereospecific cleavage of DPPG2 with Phospholipase A2 (HPLC/CAD); format: in vitro ADME, porcine; details: 0.5 U enzyme; for DPPG2 still detectable in the sample: after 10 min, 2 µmol lipid, Tris-buffer pH 8.5 with CaCl2, 37°C, normalized to t=0 min
T1 construct: commercially available enzyme (extracted from porcine pancreas) was used; purchased; host or cells: porcine pancreas (tissue extract)
T1 sequence (P00592 23-146): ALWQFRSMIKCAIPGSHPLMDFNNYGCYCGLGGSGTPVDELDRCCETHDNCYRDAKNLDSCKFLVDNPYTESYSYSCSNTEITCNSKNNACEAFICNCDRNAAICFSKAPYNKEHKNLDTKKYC
Experimental: Phospholipases are enzymes that selectively cleave bonds in glycerophospholipids based on their stereochemistry. They play a role in the metabolization of glycerophospholipids in vivo. Phospholipase A2 hydrolyzes 1,2-acyl-sn-glycero-3-phospholipids to their 1-acyl-sn-glycero-3-phospholipid and the corresponding fatty acid. For the experiments, commercially available enzyme (extracted from porcine pancreas) was used. Lipid samples (2 µmol) were dissolved 1.5 wt% deoxycholate and subsequently incubated in Tris-buffer pH 8.5 supplemented with CaCl2 together with 0.5 U enzyme in a thermoshaker at 37°C. At distinct time points, samples were taken and cleavage was analyzed by HPLC. […] The analytes are separated using a gradient elution using 100 mM NH4Ac pH 6.0 in water and methanol as eluent A and eluent B, respectively. Column oven was set to 35°C.
Three DPPG2 batches differing in configurations of the stereogenic centers in their diglycerol headgroup were tested and DPPC was applied as control glycerophospholipid (Figure 2). […] After 10 min, 14.8%, 20.4%, and 24.3% of DPPG2 according to WO 9730058, WO 2014/202680 A1, and Formula III, respectively, was still detectable in the sample.

SMILES: COc1cccc2c1C(=O)c1c(O)c3c(c(O)c1C2=O)C[C@@](O)(C(=O)CO)C[C@@H]3O[C@H]1C[C@H](N)[C@H](O)[C@H](C)O1 [non-liposomal DOX, doxorubicin]
- survival (Kaplan-Meier, 5-fold increase in tumor volume) / therapeutic efficacy [1]: comparable
- concentration at 60 min ([2]; heated BN175 tumor (HT 41.5°C), iv, HT 41.5°C, read-out: DOX concentration in the heated tumors): 3100 ± 500 ng/g
- concentration at 60 min ([2]; untreated BN175 tumor (NT, iv), NT, room temperature, read-out: DOX concentration in the untreated tumors): 1900 ± 300 ng/g
- DOX accumulation in lung and heart compared to both DPPG2-TSL-DOX formulations ([3]; 60 min after i.v. bolus 2 mg/kg DOX, result in words): significantly higher
- increase of DOX tumor accumulation by HT application (compared to the content in the untreated tumors) ([3]; 60 min local HT 41.5°C light source vs untreated tumor, 2 mg/kg DOX i.v.): 1.6 fold
- DOX plasma clearance [4]: cleared within minutes

SMILES: CCCCCCCCCCCCCCCC(=O)OC[C@H](COP(=O)([O-])OCC[N+](C)(C)C)OC(=O)CCCCCCCCCCCCCCC [DPPC, 1,2-dipalmitoyl-sn-glycero-3-phosphocholine]
- cleavage by phospholipase A2 compared with DPPG2 (Phospholipase A2; control glycerophospholipid, 37°C): cleaved notably slower than DPPG2

Further lines, results first:

- DPPG2 still detectable in the sample (Phospholipase A2): 20.4%
SMILES: CCCCCCCCCCCCCCCC(=O)OC[C@H](COP(=O)(O)OC[C@@H](O)COCC(O)CO)OC(=O)CCCCCCCCCCCCCCC (stereo partly shown) [DPPG2 according to WO 2014/202680 A1, 1,2-Dipalmitoyl-sn-glycero-3-phospho-sn-1'-diglycerol]

- DPPG2 still detectable in the sample (Phospholipase A2): 24.3%
SMILES: CCCCCCCCCCCCCCCC(=O)OC[C@H](COP(=O)(O)OC[C@@H](O)COC[C@H](O)CO)OC(=O)CCCCCCCCCCCCCCC [DPPG2 according to Formula III, 1,2-dipalmitoyl-sn-glycero-3-phospho-sn-1'-glycero-sn-3"-glycerol]

- DPPG2 still detectable in the sample (Phospholipase A2): 14.8%
SMILES: CCCCCCCCCCCCCCCC(=O)OC[C@H](COP(=O)(O)OCC(O)COCC(O)CO)OC(=O)CCCCCCCCCCCCCCC (mixture of isomers) [DPPG2 according to WO 9730058, 1,2-Dipalmitoyl-sn-glycero-3-phospho-rac-diglycerol]

Source: patent EP4527843A1, “STEREOISOMERIC PHOSPHATIDYLOLIGOGLYCEROL” (Thermosome GmbH, priority 2023, dated 2025)
